The text below walks through data of a melting point compilation (Tetko et al.; mined from patent text by program, amines drawn as free bases though some values may be those of a salt).

As to `COc1c(C)c2c(c(O)c1CC1=C(C)CC(C(=O)O)C1)C(=O)OC2` (stereo not given), the melting point lay within 208 to 211 °C.

`C#Cc1cn(C2CC(O)C(CO)O2)c(=O)n(C(=O)c2ccc(C)cc2)c1=O` (stereo not given) displayed a melting point of 176 to 179 °C.

The compound `COc1ccc(N2C(=O)C(C)N(c3ccc(Cc4ccccc4)cc3)C2=S)cc1` (stereo not given) had a melting point of 122 °C.

`CCN(CC)CCCOc1ccc(C[C@H](NC(=O)[C@@H]2CCCN2S(=O)(=O)c2ccc(C)cc2)C(=O)O)cc1` had a melting point of 76 to 82 °C.

Take `CN1CC(=O)C(C)(C)CC1=O`: the melting point lay within 52 to 54 °C.

Take `O=S(=O)(O)c1ccc(O)c(O)c1`: the melting point was in the range of 254 to 255 °C.

On to `CCN(CC)C(=O)/C=C/CSc1nc(N)cc(Cl)n1`, for which the melting point fell in the range of 143 to 145 °C.

The compound `CC(c1ccccc1)C(CS)C(=O)NC(Cc1ccc(O)cc1)C(=O)O` (stereo not given) displayed a melting point of 80 °C.

Compound `Cc1c(CCCC(=O)O)cccc1C(=O)c1ccc(Cl)cc1` yielded a melting point of 124 °C.

As for `CC[C@H](C)[C@H](Nc1nc(OC)ns1)C(=O)N1CCC[C@H]1C(=O)OC`, the melting point fell in the range of 129 to 130 °C.

In turn, `Oc1ccc2cc(-c3nc4ccc(O)cc4o3)ccc2c1` showed a melting point of 288 to 290 °C.

With `O=C(NCc1ccccc1)c1ccnc(NC(=O)c2ccc(C(F)(F)F)cc2)c1`, the melting point is 181 to 183 °C.

In turn, `CONC(=O)c1ccccc1SCc1ccccc1` returned a melting point of 100 to 105 °C.

Consider `O=C(O)C12CCCC(C1)C1CCC2C1` (stereo not given), for which the melting point lay within 158 to 160 °C.

For the compound `CNC(=O)C(SC)c1cccc(C(=O)c2ccccc2)c1N` (stereo not given), the melting point was 149 to 150 °C.

`CCc1c(CO)[nH]c(=O)c(I)c1Oc1cc(C)cc(C)c1` registered a melting point of 70 °C.

`CCCCCCCCCCCCc1ccc2nc3c(c(O)c2c1)CCCC3` showed a melting point of 225 to 226 °C.

As for `CCCOc1ccc(C)cc1C(N)=O`, the melting point was 112 to 115 °C.

As for `Cc1ccc(Oc2ccccc2NN)c(O)c1`, the melting point was in the range of 108 to 110 °C.

With `COc1cccc(OC)c1C(=O)P(=O)(C(=O)c1c(OC)cccc1OC)c1ccccc1`, the melting point came out at 155 °C.

On to `COC=C(C(=O)OC)c1scnc1COc1ccccc1`, for which the melting point is 133 °C.

Take `CCOC(=O)C1Cc2[nH]c3ccc(OC)cc3c2C1` (stereo not given): the melting point fell in the range of 82 to 83 °C.

The compound `O=c1[nH]c2ccccc2c(=O)n1CCN1CCC(c2noc3cc(F)ccc23)CC1` registered a melting point of 253 °C.

Compound `COc1ccc2c(c1)CCC1C2CCC2(C)C(NCCCCCCNc3ccc([N+](=O)[O-])cc3[N+](=O)[O-])CCC12` (stereo not given) returned a melting point of 90 to 92 °C.

Take `C#CC(O)c1ncn(C(c2ccccc2)(c2ccccc2)c2ccccc2)n1` (stereo not given): the melting point was 138 to 139 °C.

Compound `Cc1cccc2[nH]c(=O)n(S(=O)(=O)c3ccc(Cl)cc3)c(=O)c12` displayed a melting point of over 250 °C.

Turning to `O=C(C1CCCCC1)N1CCN2C(=O)c3ccccc3C2C1=O` (stereo not given), the melting point lay in the range of 167 to 172 °C.

On to `CSc1ccc(O)cn1`, for which the melting point was 133 °C.

`COc1cccc(N2CCN(Cc3cn4cc(Cl)ccc4n3)CC2)c1` displayed a melting point of 132 to 134 °C.

`COc1ccc(-c2cc(COS(C)(=O)=O)c(=O)n(Cc3ccc(Cl)cc3)n2)cc1F` yielded a melting point of 156 to 157 °C.

`CCCc1c(OCCCCCOc2ccc(C(=O)CCC(=O)O)cc2CCC(=O)O)ccc2c1OCCC2=O`: the melting point lay in the range of 182 to 184 °C.

Regarding `O=C(O)c1cccc(-c2ccc(Cl)c3cc(Cc4cc(F)cc(Cl)c4)sc23)c1`, the melting point was 110 to 114 °C.

As for `CC1(C)OC(=O)C(c2cccc(F)c2)=C1c1ccc(S(C)(=O)=O)cc1`, the melting point was 173 °C.

Compound `Cc1cc(CN(Cc2cc(C(F)(F)F)cc(C(F)(F)F)c2)c2nnn(C)n2)c(N(CC2CC2)CC2CC2)nc1C` came in with a melting point of 103 °C.

In turn, `Cc1ccc(CCOc2ccc(N)cc2)nc1` registered a melting point of 74 to 75 °C.

Turning to `Cc1cc(-c2ccc(S(C)(=O)=O)cc2)n(-c2ccc(Br)cc2)c1C`, the melting point was in the range of 215 to 219 °C.

In turn, `COCc1nnc(-c2cccnc2)n1-c1c(C)c(Cl)cc2nc(OC)c(OC)nc12` returned a melting point of 166 to 168 °C.

Compound `O=C(Cc1ccccc1)c1ccc(OCC2CO2)cc1` (stereo not given) gave a melting point of 81 to 82.4 °C.

For the compound `CCCCc1oc2ccccc2c1C(=O)c1ccc(OCCBr)cc1`, the melting point was 46 to 47 °C.

`CCCCCC[C@@H](C)Oc1cc2sc(C(=O)OC)c(O)c2cc1[N+](=O)[O-]`: the melting point lay within 54 to 55 °C.

In the case of `CCCC(=O)Nc1n[nH]c2cc(-c3cccnc3)ccc12`, the melting point worked out at 205 °C.

The compound `COC(=O)c1ccc(=O)n(Cc2ccc(-c3ccccc3)cc2)c1` came in with a melting point of 130 to 133 °C.

In turn, `CN(C)C(=O)C1Cc2c([nH]c3ccccc23)C(c2ccc3c(c2)OCO3)N1C(=O)C=Cc1ccccc1` (stereo not given) returned a melting point of 175 to 178 °C.

In turn, `CN1CC(CCN2CCN(c3ccc(F)cc3)CC2)OC1=O` (stereo not given) came in with a melting point of 82 to 84 °C.

`CC1=NC(NCc2ccc(O)c(OC(F)F)c2)C(C)(Cl)C=N1` (stereo not given) registered a melting point of 167 to 168 °C.

For `COc1ccc(S(=O)(=O)N=[N+]=[N-])cc1`, the melting point is 48 to 50 °C.

`CCc1nc(N)nc(NC(CC)COCc2ccc(F)cc2)n1` (stereo not given) showed a melting point of 96 °C.

In the case of `CCCCCCCCCCc1cc2c(s1)-n1c(C)nnc1CN=C2c1ccccc1C`, the melting point lay within 61 to 63 °C.

For the compound `O=C(CCl)c1ccc2c(c1)CCO2`, the melting point was 85 to 87 °C.

In turn, `Oc1cc(Cl)ccc1Oc1cccc(Br)c1` displayed a melting point of 63 to 65 °C.

Compound `C#Cc1cccc(-n2c(=O)oc3ccc(-c4ccc(F)cc4F)cc3c2=O)c1` returned a melting point of 195 to 196 °C.

In turn, `CC=Cc1c(NC(=O)C(F)(F)F)ccc2c(=O)cc(C(=O)OCC)oc12` came in with a melting point of 140 to 141 °C.

As for `Cc1cccc(-c2nc3ccc(OCC(C)N(C)C)cc3n2Cc2ccccc2)c1` (stereo not given), the melting point worked out at 74 °C.

`CC[C@@H](C=O)NC(=O)OC(C)(C)C` gave a melting point of 39 to 43 °C.

Take `CCCCCCCCCCCCCCCCCCOC(=O)C(NC(C)=O)C(=O)OC` (stereo not given): the melting point fell in the range of 75 to 77 °C.

As to `CCn1c(=O)[nH]c2ncccc2c1=O`, the melting point is 240 to 241 °C.

As for `Cc1cncn1CC#CCN1CCNC1=O`, the melting point is 163 to 167 °C.

Consider `COc1cccc(OC)c1-c1nc2cnncc2[nH]1`, for which the melting point turned out to be 207 °C.

As to `Cc1[nH]c2ncnc(Nc3cccc(F)c3)c2c1C`, the melting point was 245 to 255 °C.

As for `CCCS(=O)(=O)c1cc(C(=O)CCC(=O)c2cc(OC)c(OC)c(OC)c2)cc(OC)c1OCc1ccccc1`, the melting point lay in the range of 148 to 150 °C.

Consider `C[C@H]1CN(c2c(F)cc3c(=O)c(C(=O)O)cn(CCF)c3c2Cl)C[C@H]1N` (relative stereo), for which the melting point is 234 to 236 °C.

`CCCCOc1c(CO)n(CC(C)(C)C)c(=O)c2cc(F)ccc12` returned a melting point of 149 to 150 °C.

For `CC[C@@]12C[C@@](C)(O)[C@](O)(c3ccccc3)C[C@H]1CCc1cc(OCC(=O)NCCCC#N)ccc12`, the melting point lay in the range of 185 to 186 °C.

The compound `O=c1oc(-c2ccc(OCC3CCCCC3)cc2)cc(O)c1SCCc1ccccc1` returned a melting point of 130 to 132 °C.

`COc1ccc2c(c1)CCN(C#N)C2c1cc(OC)c(OC)c(OC)c1` (single isomer, unassigned; (-)): the melting point fell in the range of 132 to 134 °C.

In turn, `O=C(O)CN(CCN(CC(=O)O)C(Cc1ccccc1)C(=O)O)CC(=O)O` (stereo not given) showed a melting point of 120 °C.

In the case of `CCSC(F)(F)C(O)(Cn1cncn1)c1ccc(F)cc1F` (stereo not given), the melting point lay within 109 to 110 °C.

Consider `Cc1cccc2nc3n(c(=O)c12)-c1ccccc1C3=O`, for which the melting point was in the range of 304 to 307 °C.

In the case of `CNCC1Oc2cc(F)cc(-c3ccccc3Cl)c2O1` (stereo not given), the melting point lay within 132 to 134 °C.

Compound `CC(C)(C)OC(=O)NCCNC(=O)c1ccc(Cl)cc1` registered a melting point of 141 to 143 °C.

`CCOC(=O)c1ncc(-c2ccc(Br)cc2)o1`: the melting point was in the range of 120 to 122 °C.

On to `CC1OC(Cn2cncn2)(c2ccc(Cl)cc2Cl)OC1C` (single isomer, unassigned; (-)), for which the melting point stood at 82.5 °C.

For `CC(C)C[C@H](NC(=O)OC(C)(C)C)[C@H](O)c1nccs1`, the melting point was 121 to 122 °C.

`OC1CCC2(c3c[nH]cn3)Cc3ccccc3C12` (stereo not given) showed a melting point of 183 to 186 °C.

Take `CC(C)(C)OC(=O)NCCCCn1c(-c2ccccc2)nc2cnc3ccccc3c21`: the melting point fell in the range of 158 to 159 °C.

For `CC1CC(=O)NN=C1c1ccc(NC(=O)CCNCC(O)C(Cc2ccccc2)Oc2ccc(CCOCC3CC3)cc2)cc1` (stereo not given), the melting point is 125 to 128 °C.

The compound `CC(C)(C)OC(=O)Nc1ccc(-c2ccccc2F)cc1N` gave a melting point of 100 to 103 °C.

Take `COc1ccc(CCNC(=O)C(F)(F)F)cc1OC`: the melting point was 93 °C.

Compound `CCOc1nn(Cc2ccc(OC)c(OCc3nc(-c4ccccc4)oc3C)c2)cc1CCC(=O)O` came in with a melting point of 136 to 137 °C.

`Cc1cc(C)c2ncc(Br)n2n1` came in with a melting point of 137 to 139 °C.

As for `O=C(O)C1CCc2c(c3cccc(Br)c3n2C(=O)c2ccccc2)C1` (stereo not given), the melting point lay within 196 to 198 °C.

Consider `CCCCc1oc2ccc([N+](=O)[O-])cc2c1C(=O)c1ccc(OCCCO)cc1`, for which the melting point is 76 to 80 °C.

In the case of `CC(C(=O)O)c1ccc(C=C2CCCCC2O)cc1` (stereo not given), the melting point was 135 to 136 °C.

`COc1cc(C(=O)NS(=O)(=O)c2ccccc2)cnc1C(=O)O` yielded a melting point of 176 to 178 °C.

`Cc1cc(Nc2ccnc(Cl)n2)ccc1F` came in with a melting point of 130 to 131 °C.

The compound `Cc1ccc(C(=O)C=CN(C)C)cc1C` came in with a melting point of 108 to 110 °C.

The compound `CCN(CC)c1ccc(/C=C/c2cc(/C=C/c3ccc4cc[nH]c4c3)[nH]n2)c(OCCN2CCCCC2)c1` had a melting point of 102 to 104 °C.

Take `CC(=O)N1CCN(c2ccn3nc(-c4ccccc4)c(-c4ccc(=O)n(C(C)C)n4)c3c2)CC1`: the melting point fell in the range of 148 to 149 °C.

The compound `Cc1cc(Cl)ccc1NC(=N)Nc1ncccc1OCc1c(F)cccc1Cl` displayed a melting point of 155 to 156 °C.

In turn, `CN(C)Cc1noc(-c2nn(Cc3ccccc3)c3ccccc23)n1` returned a melting point of 93 to 95 °C.

What is called melting point is the temperature of the solid-liquid transition.
